Data as given in patent US20100316743A1, “INHIBITION OF THE FORMATION OF AGEs” (BASF BEAUTY CARE SOLUTIONS FRANCE S.A.S., priority 2007, published 2010).

How the values were obtained:
[1] = biological target: bovine serum albumin (BSA) (Bos taurus, UniProt P02769); assay: Inhibition of the formation of AGEs in a BSA/reducing sugar solution, measured by fluorescence; assay type: biochemical; details: fluorescence versus positive control 1.5 mM aminoguanidine
Experimental: The preparation of a solution containing a protein and a reducing sugar was carried out extemporaneously as follows: a solution of bovine serum albumin (BSA) at a concentration between 1.5 μM and 1.5M, preferably between 15 μM and 500 μM, was incubated with a solution of a reducing sugar such as glucose, fructose, ribose, etc., preferably with glucose, at a concentration between 0.1M and 10M, preferably between 0.5M and 5M. […]
The protein/reducing sugar solution prepared in 1 was incubated with or without (negative control) the presence of an extract obtained in 2, at a temperature between 40 and 60° C., preferably at around 50° C. for 1 to 5 weeks, preferably for 3 weeks. The active substances obtained by extraction according to the protocol described in paragraph 2—extracts were tested at a concentration between 0.001 and 10%, preferably between 0.01 and 5% and more particularly at 1% by weight in the protein/reducing sugar preparation. The positive control used was aminoguanidine at a concentration between 15 μM and 150 mM, preferably at a concentration between 1.5 mM and 15 mM in water. The measure of the inhibition of the AGEs was carried out by measuring the fluorescence (excitation wavelength between 350 and 375 nm, preferably at 355 nm; emission wavelength between 420 and 450 nm, preferably at 430 nm). The inhibition was calculated by deducing the resulting value of the interaction of the plant extracts with the molecules of the reaction medium (quenching).
The preparation of a protein/reducing sugar solution was carried out according to the method described in Example 1 (paragraph 1). The molecules were tested at a concentration between 1×10^−7 and 1×10^−1%, and preferably between 1×10^−5 and 1×10^−1%, and in particular at 1×10^−1%, for example in water or in DMSO.

[2] = kidneys; cited from earlier work
[3] = characterized molecules, in particular at 1×10^−1% in water or DMSO, BSA/reducing sugar
[4] = Example 4, comparison with anthocyanins of the prior art, quenching taken into account

bovine serum albumin (BSA), sequence (P02769 25-607): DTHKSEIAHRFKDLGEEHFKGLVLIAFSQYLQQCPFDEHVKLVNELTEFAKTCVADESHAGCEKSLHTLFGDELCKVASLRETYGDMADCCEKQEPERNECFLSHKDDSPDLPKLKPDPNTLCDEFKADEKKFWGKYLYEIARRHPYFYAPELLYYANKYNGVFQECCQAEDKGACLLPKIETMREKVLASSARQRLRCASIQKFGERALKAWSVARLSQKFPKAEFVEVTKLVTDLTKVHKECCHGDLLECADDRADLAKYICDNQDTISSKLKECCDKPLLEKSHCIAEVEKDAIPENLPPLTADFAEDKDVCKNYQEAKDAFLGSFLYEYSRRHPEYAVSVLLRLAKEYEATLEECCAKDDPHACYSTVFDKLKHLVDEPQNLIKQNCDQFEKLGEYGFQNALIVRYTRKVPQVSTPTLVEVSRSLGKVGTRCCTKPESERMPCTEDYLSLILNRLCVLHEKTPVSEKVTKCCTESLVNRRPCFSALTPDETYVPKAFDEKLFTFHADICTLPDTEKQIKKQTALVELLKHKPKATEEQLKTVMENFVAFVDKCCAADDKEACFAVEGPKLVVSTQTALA

Compound	% inhibition [1, 3]	% inhibition [1, 4]	also measured
O=C1C=CC(=O)c2cc3ccccc3cc21 [1,4-Anthraquinone]	89.6%		
Nc1c(CO)ccc2c1C(=O)c1ccccc1C2=O [1-Amino-2-hydroxymethylanthraquinone]	66.0%		
Nc1ccc(O)cc1 [4-Aminophenol]	78.5%		
O=C(/C=C/c1ccc(O)cc1)c1ccccc1 [4-Hydroxychalcone]	81.4%		
N=C(N)NN [Aminoguanidine]			reduction of the excretion of albumin in diabetics [2]: 90%
Oc1ccccc1O [Catechol]	88.3%		
OC[C@H]1O[C@@H](Oc2cc3c(O)cc(O)cc3[o+]c2-c2ccc(O)c(O)c2)[C@H](O)[C@@H](O)[C@H]1O.[Cl-] [Idaein chloride, reference compound]		0%	
O=C([O-])c1ccccc1-c1c2cc(I)c(=O)c(I)c-2oc2c(I)c([O-])c(I)cc12.[Na+].[Na+] [Sodium erythrosine]	95.6%		

Continued, in another order:

% inhibition [1, 3]	% inhibition [1, 4]	Compound	also measured
	0%	OC[C@H]1O[C@@H](Oc2cc3c(O)cc(O)cc3[o+]c2-c2ccc(O)c(O)c2)[C@H](O)[C@@H](O)[C@@H]1O.[Cl-] [Kuromanin Chloride, reference compound]	
	0%	COc1cc(-c2[o+]c3cc(O)cc(O[C@@H]4O[C@H](CO)[C@@H](O)[C@H](O)[C@H]4O)c3cc2O[C@@H]2O[C@H](CO)[C@@H](O)[C@H](O)[C@H]2O)cc(OC)c1O.[Cl-] [Malvin Chloride, reference compound]	
	0%	OC[C@H]1O[C@@H](Oc2cc3c(O[C@@H]4O[C@H](CO)[C@@H](O)[C@H](O)[C@H]4O)cc(O)cc3[o+]c2-c2ccc(O)cc2)[C@H](O)[C@@H](O)[C@@H]1O.[Cl-] [Perlargonin chloride, reference compound]	
67.9%		O=C1C[C@@H](c2ccc(O)cc2)Oc2cc(O[C@@H]3O[C@H](CO)[C@@H](O)[C@H](O)[C@H]3O)cc(O)c21 [Prunin]	
